Measurements taken from ChEMBL document CHEMBL1141054, “Analogs of a potent maxi-K potassium channel opener with an improved inhibitory profile toward cytochrome P450 isozymes” (Bioorg Med Chem Lett, 2005).
One block for each compound: values may come before it.

Columns and labels:
Cytochrome P450 3A4 [1] = target: T1, Cytochrome P450 3A4 (Homo sapiens, UniProt P08684); assay: Inhibition against Cytochrome P450 3A4 prepared from baculovirus-infected insect cells using resorufin benzyl ether; type: ADME
Cytochrome P450 1A2 = target: T2, Cytochrome P450 1A2 (Homo sapiens, UniProt P05177); assay: Inhibition against Cytochrome P450 1A2 prepared from baculovirus-infected insect cells using 3-cyano-7-ethoxycoumarin; type: ADME
T2 sequence (P05177 whole entry): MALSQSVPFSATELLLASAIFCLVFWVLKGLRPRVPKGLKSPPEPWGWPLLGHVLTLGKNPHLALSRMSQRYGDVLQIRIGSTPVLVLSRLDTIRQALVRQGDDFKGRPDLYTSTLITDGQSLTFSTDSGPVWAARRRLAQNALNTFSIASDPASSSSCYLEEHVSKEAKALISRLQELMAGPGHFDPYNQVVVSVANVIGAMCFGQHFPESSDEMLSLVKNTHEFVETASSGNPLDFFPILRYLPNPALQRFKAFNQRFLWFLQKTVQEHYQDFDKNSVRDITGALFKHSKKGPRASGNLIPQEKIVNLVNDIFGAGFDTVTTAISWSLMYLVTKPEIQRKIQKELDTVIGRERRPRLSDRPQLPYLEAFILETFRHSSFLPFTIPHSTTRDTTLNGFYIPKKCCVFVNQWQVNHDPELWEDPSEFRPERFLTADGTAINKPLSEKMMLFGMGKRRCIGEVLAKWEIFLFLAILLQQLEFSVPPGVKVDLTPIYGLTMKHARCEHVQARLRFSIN

Cytochrome P450 2C19 = Cytochrome P450 2C19 (Homo sapiens, UniProt P33261); assay: Inhibition against Cytochrome P450 2C19 prepared from baculovirus-infected insect cells using 3-cyano-7-ethoxycoumarin; type: ADME
Cytochrome P450 2C9 [2] = target: T3, Cytochrome P450 2C9 (Homo sapiens, UniProt P11712); assay: Inhibition against Cytochrome P450 2C9 prepared from baculovirus-infected insect cells using 7-methoxy-4-trifluoromethylcoumarin; type: ADME
Cytochrome P450 3A4 [3] = target: T1, Cytochrome P450 3A4; assay: Inhibition against Cytochrome P450 3A4 prepared from baculovirus-infected insect cells using 7-benzyloxy- 4-trifluoromethylcoumarin; type: ADME
Cytochrome P450 2D6 [4] = target: T4, Cytochrome P450 2D6 (Homo sapiens, UniProt P10635); assay: Inhibition against Cytochrome P450 2D6 prepared from baculovirus-infected insect cells using 3-[2-(N,N-diethyl-N-methylamino)ethyl]-7- methoxy-4-methylcoumarin; type: ADME
[5] = Percent increase of potassium current mediated by large conductance calcium-activated channel expressed in Xenopus laevis oocytes at 20 uM; type: functional, Homo sapiens, Oocyte
Cytochrome P450 2C9 [6] = target: T3, Cytochrome P450 2C9; assay: Inhibitory activity against Cytochrome P450 2C9; type: ADME
Cytochrome P450 2C9 [7] = target: T3, Cytochrome P450 2C9; assay: Inhibition against Cytochrome P450 2C9; type: ADME
Cytochrome P450 3A4 [8] = target: T1, Cytochrome P450 3A4; assay: Inhibition against Cytochrome P450 3A4 prepared from baculovirus-infected insect cells using resorufin benzylether; type: ADME
Cytochrome P450 3A4 [9] = target: T1, Cytochrome P450 3A4; assay: Inhibition against Cytochrome P450 3A4 prepared from baculovirus-infected insect cells using 7-benzyloxy-4-trifluoromethylcoumarin; type: ADME
Cytochrome P450 2D6 [10] = target: T4, Cytochrome P450 2D6; assay: Inhibition against Cytochrome P450 2D6 prepared from baculovirus-infected insect cells using 3-[2-(N,N-diethyl-N-methylamino)ethyl]-7-methoxy-4-methylcoumarin; type: ADME

Chain of Cytochrome P450 2C19 (P33261 whole entry): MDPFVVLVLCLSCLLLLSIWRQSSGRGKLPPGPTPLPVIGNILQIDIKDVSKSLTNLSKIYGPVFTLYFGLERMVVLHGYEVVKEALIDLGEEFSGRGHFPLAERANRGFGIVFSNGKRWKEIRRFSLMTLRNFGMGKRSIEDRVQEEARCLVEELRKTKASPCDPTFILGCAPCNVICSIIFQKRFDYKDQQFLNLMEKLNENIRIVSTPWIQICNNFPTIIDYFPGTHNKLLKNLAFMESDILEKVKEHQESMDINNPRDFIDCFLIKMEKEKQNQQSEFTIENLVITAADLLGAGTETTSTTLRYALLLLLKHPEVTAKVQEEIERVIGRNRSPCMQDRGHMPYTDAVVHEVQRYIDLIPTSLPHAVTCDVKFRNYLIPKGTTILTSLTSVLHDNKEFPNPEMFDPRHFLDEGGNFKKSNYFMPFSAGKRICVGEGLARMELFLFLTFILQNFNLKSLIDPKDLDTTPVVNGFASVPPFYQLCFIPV
T3 sequence (P11712 whole entry): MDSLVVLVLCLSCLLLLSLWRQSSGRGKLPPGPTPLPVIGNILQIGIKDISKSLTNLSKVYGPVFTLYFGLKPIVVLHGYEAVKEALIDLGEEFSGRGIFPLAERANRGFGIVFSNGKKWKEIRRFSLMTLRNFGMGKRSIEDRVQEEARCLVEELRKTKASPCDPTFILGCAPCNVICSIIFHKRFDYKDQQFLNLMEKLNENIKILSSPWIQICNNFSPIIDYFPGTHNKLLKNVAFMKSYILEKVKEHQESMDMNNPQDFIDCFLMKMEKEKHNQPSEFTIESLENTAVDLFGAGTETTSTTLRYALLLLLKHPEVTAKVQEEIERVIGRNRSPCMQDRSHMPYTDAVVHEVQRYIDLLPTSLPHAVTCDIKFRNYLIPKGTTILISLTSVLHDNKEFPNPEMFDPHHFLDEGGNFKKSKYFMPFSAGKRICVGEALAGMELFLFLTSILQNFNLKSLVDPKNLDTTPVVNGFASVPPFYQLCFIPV
T4 sequence (P10635 whole entry): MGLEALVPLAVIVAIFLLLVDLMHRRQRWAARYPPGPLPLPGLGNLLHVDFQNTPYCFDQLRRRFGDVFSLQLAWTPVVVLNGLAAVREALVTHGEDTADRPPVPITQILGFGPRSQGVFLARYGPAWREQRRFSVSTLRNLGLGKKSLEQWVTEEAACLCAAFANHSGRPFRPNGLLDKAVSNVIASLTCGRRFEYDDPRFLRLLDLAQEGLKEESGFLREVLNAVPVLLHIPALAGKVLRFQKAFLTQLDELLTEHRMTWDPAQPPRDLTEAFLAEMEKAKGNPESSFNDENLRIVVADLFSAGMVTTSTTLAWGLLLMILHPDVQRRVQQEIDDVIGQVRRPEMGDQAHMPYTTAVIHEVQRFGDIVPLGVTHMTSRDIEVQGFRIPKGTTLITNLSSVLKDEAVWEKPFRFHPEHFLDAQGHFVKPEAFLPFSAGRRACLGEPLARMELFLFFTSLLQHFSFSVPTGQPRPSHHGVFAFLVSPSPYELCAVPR
T1 sequence (P08684 whole entry): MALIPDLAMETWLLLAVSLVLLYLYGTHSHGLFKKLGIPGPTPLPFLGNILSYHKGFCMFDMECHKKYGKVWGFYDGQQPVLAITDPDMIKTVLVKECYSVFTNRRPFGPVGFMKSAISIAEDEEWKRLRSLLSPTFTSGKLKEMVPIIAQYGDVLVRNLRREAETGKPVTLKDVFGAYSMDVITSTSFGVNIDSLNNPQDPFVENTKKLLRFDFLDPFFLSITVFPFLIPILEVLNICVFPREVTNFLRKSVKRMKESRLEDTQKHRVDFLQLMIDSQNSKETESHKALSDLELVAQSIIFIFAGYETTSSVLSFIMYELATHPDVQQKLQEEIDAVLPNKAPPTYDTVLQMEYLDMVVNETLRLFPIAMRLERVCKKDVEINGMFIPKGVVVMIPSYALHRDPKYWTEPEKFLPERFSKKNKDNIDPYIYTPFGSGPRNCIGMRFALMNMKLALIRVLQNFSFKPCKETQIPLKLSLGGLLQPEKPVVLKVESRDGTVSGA

SMILES: NC(=O)Cn1c(=O)c(CCO)c(-c2cc(Cl)ccc2O)c2cc(C(F)(F)F)ccc21
IC50 (Cytochrome P450 3A4 [1]): 50 µM | IC50 (Cytochrome P450 1A2): > 100 µM | IC50 (Cytochrome P450 2C19): 8.2 µM | IC50 (Cytochrome P450 2C9 [2]): 16 µM | IC50 (Cytochrome P450 3A4 [3]): 26 µM | IC50 (Cytochrome P450 2D6 [4]): > 100 µM | Increase [5]: 262.5%

SMILES: COc1ccc(Cl)cc1-c1c(CCO)c(O)nc2ccc(C(F)(F)F)cc12
IC50 (Cytochrome P450 2C9 [6]): 5.47 µM | Increase [5]: 211.2%

SMILES: NC(=O)COc1ccc(Cl)cc1-c1c(CCO)c(O)nc2ccc(C(F)(F)F)cc12
Increase [5]: 124%

SMILES: N=C(N)COc1ccc(Cl)cc1-c1c(CCO)c(O)nc2ccc(C(F)(F)F)cc12
Increase [5]: 118.3%

SMILES: N#CCOc1ccc(Cl)cc1-c1c(CCO)c(O)nc2ccc(C(F)(F)F)cc12
Increase [5]: 148.9%

SMILES: N#CCn1c(=O)c(CCO)c(-c2cc(Cl)ccc2O)c2cc(C(F)(F)F)ccc21
IC50 (Cytochrome P450 3A4 [1]): 18 µM | IC50 (Cytochrome P450 1A2): > 40 µM | IC50 (Cytochrome P450 2C19): 24 µM | IC50 (Cytochrome P450 2C9 [2]): 3.9 µM | IC50 (Cytochrome P450 3A4 [3]): 13 µM | IC50 (Cytochrome P450 2D6 [4]): 23 µM | Increase [5]: 236.6%

SMILES: OCCc1c(O)nc2ccc(C(F)(F)F)cc2c1-c1cc(Cl)ccc1OCc1nn[nH]n1
Increase [5]: 111%

SMILES: N=C(N)Cn1c(=O)c(CCO)c(-c2cc(Cl)ccc2O)c2cc(C(F)(F)F)ccc21
Increase [5]: 105.8%

SMILES: O=C1Cc2c(c3cc(C(F)(F)F)ccc3[nH]c2=O)-c2cc(Cl)ccc2O1
IC50 (Cytochrome P450 2C9 [6]): 12.4 µM

SMILES: O=c1c(CCO)c(-c2cc(Cl)ccc2O)c2cc(C(F)(F)F)ccc2n1Cc1nn[nH]n1
IC50 (Cytochrome P450 3A4 [1]): 13 µM | IC50 (Cytochrome P450 1A2): > 100 µM | IC50 (Cytochrome P450 2C19): 12 µM | IC50 (Cytochrome P450 2C9 [2]): 19 µM | IC50 (Cytochrome P450 3A4 [3]): 30 µM | IC50 (Cytochrome P450 2D6 [4]): > 100 µM | Increase [5]: 205.8%

SMILES: CCN(CC)C[C@@H](O)CSc1c(-c2cc(Cl)ccc2O)c2cc(C(F)(F)F)ccc2[nH]c1=O
IC50 (Cytochrome P450 2C9 [6]): 50.7 µM

Now from value to compound, other results behind:

IC50 (Cytochrome P450 2C9 [6]): 19.5 µM
SMILES: CC(=O)CC1Oc2ccc(Cl)cc2-c2c1c(=O)[nH]c1ccc(C(F)(F)F)cc21 (stereo not drawn)

IC50 (Cytochrome P450 2C9 [6]): > 100 µM
SMILES: O=c1[nH]c2ccccc2c(Cc2ccccc2)c1-[n+]1ccccc1

IC50 (Cytochrome P450 2C9 [6]): 1.1 µM
SMILES: Cn1c(=O)c(CCO)c(-c2cc(Cl)ccc2O)c2cc(C(F)(F)F)ccc21
Increase [5]: 296.1%

IC50 (Cytochrome P450 2C9 [6]): 37.7 µM
SMILES: CCN(CC)C[C@H](O)CSc1c(-c2cc(Cl)ccc2O)c2cc(C(F)(F)F)ccc2[nH]c1=O

IC50 (Cytochrome P450 2C9 [7]): 1700 nM | IC50 (Cytochrome P450 3A4 [8]): > 100 µM | IC50 (Cytochrome P450 1A2): 30 µM | IC50 (Cytochrome P450 2C19): 5.2 µM | IC50 (Cytochrome P450 2C9 [2]): 1.7 µM | IC50 (Cytochrome P450 3A4 [9]): 8.1 µM | IC50 (Cytochrome P450 2D6 [10]): 35 µM
SMILES: O=c1[nH]c2ccc(C(F)(F)F)cc2c(-c2cc(Cl)ccc2O)c1CCO [BMS-223131]
Increase [5]: 252.6%
